“And” between values parts separate entries of the source, which are not always exact repeats. Identical values can stand only once. Inconclusive results and toxic doses are left out.
Tested on: CD2F1 mice, L1210 leukemia ip, survival T/C
Assay: NCI In Vivo Anticancer Drug Screen. Data for tumor model L1210 Leukemia (intraperitoneal) in CD2F1 (CDF1) mice
Conditions: higher = longer survival
How it was run: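 Ratio T/C, where T is the treated-group value and C the vehicle-dosed control value, from mice implanted with a transplantable tumor.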

[1] = endpoint: mean survival time, dose: 100.0 mg/kg/injection, schedule: Q01DX009 (ip), vehicle: other
[2] = endpoint: mean survival time, dose: 200.0 mg/kg/injection, schedule: Q01DX009 (ip), vehicle: other
[3] = endpoint: mean survival time, dose: 100.0 mg/kg/injection, schedule: Q04DX003 (ip), vehicle: saline
[4] = endpoint: mean survival time, dose: 200.0 mg/kg/injection, schedule: Q04DX003 (ip), vehicle: saline
[5] = endpoint: mean survival time, dose: 400.0 mg/kg/injection, schedule: Q04DX003 (ip), vehicle: saline
[6] = endpoint: mean survival time, dose: 100.0 mg/kg/injection, schedule: Q01DX009 (ip), vehicle: saline with Tween-80
[7] = endpoint: mean survival time, dose: 200.0 mg/kg/injection, schedule: Q01DX009 (ip), vehicle: saline with Tween-80
[8] = endpoint: mean survival time, dose: 400.0 mg/kg/injection, schedule: Q01DX009 (ip), vehicle: saline with Tween-80
[9] = endpoint: mean survival time, dose: 50.0 mg/kg/injection, schedule: Q01DX009 (ip), vehicle: saline with Tween-80

NNc1c(F)c(F)c2c(F)c(F)c(F)c(F)c2c1F was tested, and the T/C (endpoint: mean survival time, dose: 25.0 mg/kg/injection, schedule: Q01DX001 (ip), vehicle: saline with Tween-80) was 97 % of control, the T/C (endpoint: mean survival time, dose: 50.0 mg/kg/injection, schedule: Q01DX001 (ip), vehicle: saline with Tween-80) was 96 % of control and the T/C (endpoint: mean survival time, dose: 100.0 mg/kg/injection, schedule: Q01DX001 (ip), vehicle: saline with Tween-80) was 88 % of control.

For O=[N+]([O-])c1ccc2c(c1)S(=O)c1cc([N+](=O)[O-])c(Br)cc1-2 (configuration not stated) (tested in a mixture with another compound), the T/C (endpoint: mean survival time, dose: 50.0 mg/kg/injection, schedule: Q04DX002 (ip), vehicle: saline with Tween-80) was 108 % of control, the T/C (endpoint: mean survival time, dose: 100.0 mg/kg/injection, schedule: Q04DX002 (ip), vehicle: saline with Tween-80) was 108 % of control and the T/C (endpoint: mean survival time, dose: 200.0 mg/kg/injection, schedule: Q04DX002 (ip), vehicle: saline with Tween-80) was 102 % of control.

For CCCCCCCCCc1ccc(OCCOCCOCCOCCOCCOCCOCCCS(=O)(=O)[O-])cc1.CCCCCCCCCc1ccc(OCCOCCOCCOCCOCCOCCOCCCS(=O)(=O)[O-])cc1.NC1CCCCC1N.[Pt+4], the T/C (endpoint: median survival time, dose: 3.12 mg/kg/injection, schedule: Q04DX003 (ip), vehicle: saline with Tween-80) was 98 % of control, the T/C (endpoint: median survival time, dose: 6.25 mg/kg/injection, schedule: Q04DX003 (ip), vehicle: saline with Tween-80) was 98 % of control and the T/C (endpoint: median survival time, dose: 12.5 mg/kg/injection, schedule: Q04DX003 (ip), vehicle: saline with Tween-80) was 98 % of control. For the same molecule, the T/C (endpoint: median survival time, dose: 25.0 mg/kg/injection, schedule: Q04DX003 (ip), vehicle: saline with Tween-80) was 95 % of control, the T/C (endpoint: median survival time, dose: 50.0 mg/kg/injection, schedule: Q04DX003 (ip), vehicle: saline with Tween-80) was 97 % of control and the T/C (endpoint: median survival time, dose: 100.0 mg/kg/injection, schedule: Q04DX003 (ip), vehicle: saline with Tween-80) was 102 % of control. The T/C (endpoint: median survival time, dose: 200.0 mg/kg/injection, schedule: Q04DX003 (ip), vehicle: saline with Tween-80) was 103 % of control.

In the case of CCOC(=O)Nc1cccc(C(F)(F)F)c1, the T/C [1] is reported as 97 % of control, the T/C [2] is reported as 101 % of control and the T/C (endpoint: mean survival time, dose: 400.0 mg/kg/injection, schedule: Q01DX009 (ip), vehicle: other) is reported as 107 % of control.

For CCC(=O)C(C)N(C)C1CCCCC1 (configuration not stated), the T/C [3] was 100 % of control, the T/C [4] was 102 % of control and the T/C [5] was 96 % of control.

In the case of COC(=O)C1CCN1C(C)C (configuration not stated), the T/C (endpoint: mean survival time, dose: 12.5 mg/kg/injection, schedule: Q01DX009 (ip), vehicle: other) is reported as 106 % of control, the T/C (endpoint: mean survival time, dose: 25.0 mg/kg/injection, schedule: Q01DX009 (ip), vehicle: other) is reported as 106 % of control and the T/C (endpoint: mean survival time, dose: 50.0 mg/kg/injection, schedule: Q01DX009 (ip), vehicle: other) is reported as 96 % of control. For the same molecule, the T/C [1] was 98 % of control and the T/C [2] was 98 % of control.

In the case of COc1ccc(OC)c(NC(=O)Oc2ccc(F)cc2Cl)c1, the T/C [6] is reported as 101 % of control, the T/C [7] is reported as 104 % of control and the T/C [8] is reported as 102 % of control.

Cc1nc(N)[nH]c(=O)c1CCCN was tested, and the T/C [3] was 95 % of control, the T/C [4] was 98 % of control and the T/C [5] was 95 % of control.

For CSC1=NCCN1, the T/C [3] was 97 % of control, the T/C [4] was 97 % of control and the T/C [5] was 91 % of control.

In the case of Nc1ncnc2c1ncn2CCCN1C(=O)c2ccccc2C1=O, the T/C [6] is reported as 93 % of control, the T/C [7] is reported as 95 % of control and the T/C [8] is reported as 101 % of control.

CCCCc1c(N)nc(N)nc1N was tested, and the T/C (endpoint: mean survival time, dose: 18.7 mg/kg/injection, schedule: Q01DX001 (ip), vehicle: saline with Tween-80) was 104 % of control, the T/C (endpoint: mean survival time, dose: 37.5 mg/kg/injection, schedule: Q01DX001 (ip), vehicle: saline with Tween-80) was 100 % of control and the T/C (endpoint: mean survival time, dose: 75.0 mg/kg/injection, schedule: Q01DX001 (ip), vehicle: saline with Tween-80) was 109 % of control.

CN1CCC(c2ccccc2)(c2ccccc2)OC1 was tested, and the T/C (endpoint: mean survival time, dose: 25.0 mg/kg/injection, schedule: Q01DX009 (ip), vehicle: saline with Tween-80) was 106 % of control, the T/C [9] was 98 % of control and the T/C [6] was 110 % of control.

For O=C(O)CCC(=O)CCC(=O)c1ccc2ccccc2c1, the T/C (endpoint: mean survival time, dose: 100.0 mg/kg/injection, schedule: Q01DX001 (ip), vehicle: saline) was 98 % of control, the T/C (endpoint: mean survival time, dose: 200.0 mg/kg/injection, schedule: Q01DX001 (ip), vehicle: saline) was 98 % of control and the T/C (endpoint: mean survival time, dose: 400.0 mg/kg/injection, schedule: Q01DX001 (ip), vehicle: saline) was 95 % of control.

With COc1cc2c(c(OC)c1OC)-c1ccc(OC)c(=O)cc1[C@@H](NC(C)=O)CC2 the T/C (endpoint: mean survival time, dose: 0.02 mg/kg/injection, schedule: Q01DX009 (ip), vehicle: saline) was 117 % of control, the T/C (endpoint: mean survival time, dose: 0.03 mg/kg/injection, schedule: Q01DX009 (ip), vehicle: water) was 93 % of control and the T/C (endpoint: mean survival time, dose: 0.04 mg/kg/injection, schedule: Q01DX009 (ip), vehicle: saline) was 103 % of control. The T/C (endpoint: mean survival time, dose: 0.05 mg/kg/injection, schedule: Q01DX009 (ip), vehicle: saline) was 102 % of control, the T/C (endpoint: mean survival time, dose: 0.06 mg/kg/injection, schedule: Q01DX005 (ip), vehicle: Klucel (hydroxypropylcellulose) (HPC)) was 103 % of control and the T/C (endpoint: mean survival time, dose: 0.08 mg/kg/injection, schedule: Q01DX009 (ip), vehicle: saline) was 105 % of control. For the same molecule, the T/C (endpoint: mean survival time, dose: 0.1 mg/kg/injection, schedule: Q01DX009 (ip), vehicle: saline) was 100 % of control, the T/C (endpoint: mean survival time, dose: 0.13 mg/kg/injection, schedule: Q01DX005 (ip), vehicle: Klucel (hydroxypropylcellulose) (HPC)) was 97 % of control and the T/C (endpoint: mean survival time, dose: 0.13 mg/kg/injection, schedule: Q01DX005 (ip), vehicle: water) was 117 % of control. For the same molecule, the T/C (endpoint: mean survival time, dose: 0.16 mg/kg/injection, schedule: Q01DX009 (ip), vehicle: saline) was 111 % of control, the T/C (endpoint: mean survival time, dose: 0.19 mg/kg/injection, schedule: Q01DX009 (ip), vehicle: saline) was 104 % of control and the T/C (endpoint: mean survival time, dose: 0.25 mg/kg/injection, schedule: Q01DX005 (ip), vehicle: Klucel (hydroxypropylcellulose) (HPC)) was 114 % of control. For the same molecule, the T/C (endpoint: mean survival time, dose: 0.25 mg/kg/injection, schedule: Q01DX005 (ip), vehicle: water) was 122 % of control, the T/C (endpoint: mean survival time, dose: 0.35 mg/kg/injection, schedule: Q04DX004 (ip), vehicle: saline) was 111 % of control and the T/C (endpoint: mean survival time, dose: 0.38 mg/kg/injection, schedule: Q01DX009 (ip), vehicle: saline) was 111 % of control. The T/C (endpoint: mean survival time, dose: 0.5 mg/kg/injection, schedule: Q01DX005 (ip), vehicle: Klucel (hydroxypropylcellulose) (HPC)) was 123 % of control, the T/C (endpoint: mean survival time, dose: 0.54 mg/kg/injection, schedule: Q04DX004 (ip), vehicle: saline) was 112 % of control and the T/C (endpoint: mean survival time, dose: 0.75 mg/kg/injection, schedule: Q01DX009 (ip), vehicle: saline) was 118 % of control and 111 % of control. For the same molecule, the T/C (endpoint: mean survival time, dose: 0.8 mg/kg/injection, schedule: Q04DX004 (ip), vehicle: saline) was 115 % of control, the T/C (endpoint: mean survival time, dose: 1.2 mg/kg/injection, schedule: Q04DX004 (ip), vehicle: saline) was 122 % of control and the T/C (endpoint: median survival time, dose: 0.02 mg/kg/injection, schedule: Q01DX009 (ip), vehicle: saline) was 88 % of control and 100 % of control. For the same molecule, the T/C (endpoint: median survival time, dose: 0.04 mg/kg/injection, schedule: Q01DX009 (ip), vehicle: saline) was 100 % of control, the T/C (endpoint: median survival time, dose: 0.08 mg/kg/injection, schedule: Q01DX009 (ip), vehicle: saline) was 100 % of control and 105 % of control and the T/C (endpoint: median survival time, dose: 0.13 mg/kg/injection, schedule: Q01DX005 (ip), vehicle: saline) was 111 % of control. For the same molecule, the T/C (endpoint: median survival time, dose: 0.16 mg/kg/injection, schedule: Q01DX009 (ip), vehicle: saline) was 114 % of control and 111 % of control, the T/C (endpoint: median survival time, dose: 0.25 mg/kg/injection, schedule: Q01DX005 (ip), vehicle: saline) was 123 % of control and the T/C (endpoint: median survival time, dose: 1.0 mg/kg/injection, schedule: Q01DX005 (ip), vehicle: saline) was 164 % of control. For the same molecule, the T/C (endpoint: median survival time, dose: 2.0 mg/kg/injection, schedule: Q01DX005 (ip), vehicle: saline) was 111 % of control.

In the case of C(=N/c1ccccn1)/c1ccc(/C=N\c2ccccn2)cc1, the T/C (endpoint: mean survival time, dose: 100.0 mg/kg/injection, schedule: Q04DX003 (ip), vehicle: Klucel (hydroxypropylcellulose) (HPC)) is reported as 94 % of control, the T/C (endpoint: mean survival time, dose: 200.0 mg/kg/injection, schedule: Q04DX003 (ip), vehicle: Klucel (hydroxypropylcellulose) (HPC)) is reported as 94 % of control and the T/C (endpoint: mean survival time, dose: 400.0 mg/kg/injection, schedule: Q04DX003 (ip), vehicle: Klucel (hydroxypropylcellulose) (HPC)) is reported as 102 % of control.

In the case of CCOC(=O)/C(C#N)=C1/C=CC=CN1, the T/C [6] is reported as 98 % of control, the T/C (endpoint: mean survival time, dose: 100.0 mg/kg/injection, schedule: Q04DX003 (ip), vehicle: saline with Tween-80) is reported as 102 % of control and the T/C [7] is reported as 102 % of control. For the same molecule, the T/C (endpoint: mean survival time, dose: 200.0 mg/kg/injection, schedule: Q04DX003 (ip), vehicle: saline with Tween-80) was 110 % of control, the T/C [8] was 100 % of control and the T/C (endpoint: mean survival time, dose: 400.0 mg/kg/injection, schedule: Q04DX003 (ip), vehicle: saline with Tween-80) was 103 % of control.

For Nc1nc(N)c(N)c(NC(c2ccccc2)c2ccccc2)n1, the T/C (endpoint: mean survival time, dose: 75.0 mg/kg/injection, schedule: Q01DX001 (ip), vehicle: other) was 100 % of control.

For O=[N+]([O-])c1ccc(CS(=O)(=O)O)cc1, the T/C (endpoint: mean survival time, dose: 100.0 mg/kg/injection, schedule: Q04DX002 (ip), vehicle: saline) was 104 % of control, the T/C (endpoint: mean survival time, dose: 200.0 mg/kg/injection, schedule: Q04DX002 (ip), vehicle: saline) was 96 % of control and the T/C (endpoint: mean survival time, dose: 400.0 mg/kg/injection, schedule: Q04DX002 (ip), vehicle: saline) was 96 % of control.

In the case of COc1cccc(N=Nc2c(N)nc(N)nc2N)c1, the T/C [9] is reported as 97 % of control.
